Among the data in patent US12059425B2, “Heterocyclic compounds and uses thereof” (Kumquat Biosciences Inc., priority 2022, dated 2024) are IC50 values, retold here.

One experiment has as its system A549 cells. Put plainly: Ras cellular assay, cell proliferation A549. The format is cell-based. The following applies: Homo sapiens. How it is done:
(§1) For example, this assay can be also used to assess selective growth inhibition of a mutant Ras protein relative to a wildtype, or relative to a different mutant Ras protein.
A549 (ATCC CRL-185) and LS123 (ATCC CRL-255) cell lines comprise a G12S mutation and can be used to assess Ras cellular signaling in vitro, e.g., in response to treatment with a compound described herein. A549 culture medium is prepared with RPMI-1640 and 10% heat-inactivated FBS. LS123 culture medium is prepared with RPMI-1640 and 10% heat-inactivated FBS. A CellTiter-Glo (CTG) luminescent based assay (Promega) is used to assess growth of the cells, as a measurement of the ability of the compounds herein to inhibit Ras signaling in the cells. The cells (e.g., 800 per well) are seeded in their respective culture medium in standard tissue culture-treated 384-well format plates (Falcon #08-772-116) or ultra-low attachment surface 384-well format plates (S-Bio #MS-9384WZ). The day after plating, cells are treated with a dilution series (e.g., a 10 point, 3-fold dilution series) of the compounds herein (e.g., approximately 40 μL final volume per well). Cell viability can be monitored (e.g., approximately 6 days later) according to the manufacturer's recommended instructions, where CellTiter-Glo reagent is added (e.g., approximately 10 μL), vigorously mixed, covered, and placed on a plate shaker (e.g., approximately for 20 min) to ensure sufficient cell lysis prior to assessment of luminescent signal. The IC50 values are determined using the four parameter fit. The resulting IC50 value is a measurement of the ability of the test compound to reduce cell growth of Ras-driven cells (e.g., tumor cell lines) in vitro and/or in vivo.

The target in a further experiment is T1, K-Ras G12S (Homo sapiens, UniProt P01116, G12S).
T1 construct: made in house; host or cells: E. coli, e.g. BL21 (DE3)
T1 sequence (P01116 1-188 isoform P01116-2 G12S): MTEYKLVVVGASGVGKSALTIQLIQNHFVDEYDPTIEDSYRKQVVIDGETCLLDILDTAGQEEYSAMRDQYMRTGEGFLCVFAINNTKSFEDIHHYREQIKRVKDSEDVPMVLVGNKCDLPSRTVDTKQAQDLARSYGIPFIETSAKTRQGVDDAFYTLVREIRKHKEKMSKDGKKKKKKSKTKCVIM
Put plainly: PPI-HTRF assay, K-Ras G12S / SOS1 interaction. The format is biochemical. The following applies: read-out: PPI-HTRF-5 nM (K-Ras G12S IC50). Put shortly: (§2)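 HTRF readout: 665/620 nm ratio (ex 337 nm) after ≥10 min incubation. Donor anti-GST-Eu(K) sits on GST-K-Ras (WT, G12D, G12V or G12S) and acceptor anti-6His-XL665 on His-hSOS1. Buffer ~5 mM HEPES pH 7.4, ~150 mM NaCl, ~1 mM DTT, 0.05% BSA, 0.0025% Igepal. Duplicate 6-point dilution, 10–0.01 μM, fitted to IC50.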
A general note: Time-resolved FRET reads energy transfer from a long-lived donor to a nearby acceptor.

A further experiment has as its target T2, K-Ras G12V (Homo sapiens, UniProt P01116, G12V).
T2 construct: made in house; host or cells: E. coli, e.g. BL21 (DE3)
The experiment can be described thus: PPI-HTRF assay, K-Ras G12V / SOS1 interaction. The format is biochemical. The following applies: HTRF, K-Ras G12V; read-out: PPI-HTRF-5 nM (K-Ras G12V IC50). Put shortly:
as §2

In the next experiment the test system is SW620 cells. Put plainly: Ras cellular assay, cell proliferation SW620. The format is cell-based. The following applies: Homo sapiens, SW-620.
Description: as §1

The target of the next experiment is T3, wildtype K-Ras (Homo sapiens, UniProt P01116).
T3 construct: made in house; host or cells: E. coli, e.g. BL21 (DE3)
T3 sequence (P01116 1-188 isoform P01116-2): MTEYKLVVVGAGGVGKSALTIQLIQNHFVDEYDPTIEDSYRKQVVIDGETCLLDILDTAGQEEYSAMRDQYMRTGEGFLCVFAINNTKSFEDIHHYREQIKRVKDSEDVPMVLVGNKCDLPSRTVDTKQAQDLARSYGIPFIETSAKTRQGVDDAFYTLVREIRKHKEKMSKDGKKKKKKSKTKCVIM
The experiment can be described thus: PPI-HTRF assay, wildtype K-Ras / SOS1 interaction. The format is biochemical. The following applies: HTRF, K-Ras wt; read-out: PPI-HTRF-5 nM (K-Ras wt IC50). The procedure, abridged: as §2

The next experiment addresses T4, K-Ras G12D (Homo sapiens, UniProt P01116, G12D).
T4 construct: made in house; host or cells: E. coli, e.g. BL21 (DE3)
Put plainly: PPI-HTRF assay, K-Ras G12D / SOS1 interaction. The format is biochemical. The settings on record: HTRF, K-Ras G12D; read-out: PPI-HTRF-5 nM (K-Ras G12D IC50). Put shortly: as §2

The next experiment has as its system GP2D cells. Put plainly: Ras cellular assay, cell proliferation GP2D. The format is cell-based. As to the method: as §1
ASPC-1 (ATCC CRL-1682), Panc-10.05 (ATCC CRL-2547), A427, GP2d cell lines or any other cell lines comprising a G12D mutation can be used to assess Ras cellular signaling in vitro, e.g., in response to a compound described herein. For example, ASPC-1 culture medium is prepared with RPMI-1640 and 10% heat-inactivated FBS. Panc-10.05 culture medium is prepared with RPMI-1640, 10 Units/mL human recombinant insulin, and 10% FBS. A427 cell culture is prepared with RPMI-1640 and 10% heat-inactivated FBS. A CellTiter-Glo (CTG) luminescent based assay (Promega) is used to assess growth of the cells, as a measurement of the ability of the compounds herein to inhibit Ras signaling in the cells. The cells (e.g., 800 per well) are seeded in their respective culture medium in standard tissue culture-treated 384-well format plates (Falcon #08-772-116) or ultra-low attachment surface 384-well format plates (S-Bio #MS-9384UZ). The day after plating, cells are treated with a dilution series (e.g., a 9 point 3-fold dilution series) of the compounds herein (e.g., approximately 40 μL final volume per well). Cell viability can be monitored (e.g., approximately 5 days later) according to the manufacturer's recommended instructions, where the CellTiter-Glo reagent is added (e.g., approximately 10 μL), vigorously mixed, covered, and placed on a plate shaker (e.g., approximately for 20 min) to ensure sufficient cell lysis prior to assessment of luminescent signal. The IC50 values are determined using the four parameter fit. The resulting IC50 value is a measurement of the ability of the test compound to reduce cell growth of Ras-driven cells (e.g., tumor cell lines) in vitro and/or in vivo.

SMILES strings stand for the structures.

T4 sequence (P01116 1-188 isoform P01116-2 G12D): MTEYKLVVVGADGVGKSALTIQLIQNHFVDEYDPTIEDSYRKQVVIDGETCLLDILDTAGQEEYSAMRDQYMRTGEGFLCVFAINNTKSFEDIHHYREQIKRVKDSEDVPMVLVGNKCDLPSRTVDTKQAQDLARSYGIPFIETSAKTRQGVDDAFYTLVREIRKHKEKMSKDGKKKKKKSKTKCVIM
T2 sequence (P01116 1-188 isoform P01116-2 G12V): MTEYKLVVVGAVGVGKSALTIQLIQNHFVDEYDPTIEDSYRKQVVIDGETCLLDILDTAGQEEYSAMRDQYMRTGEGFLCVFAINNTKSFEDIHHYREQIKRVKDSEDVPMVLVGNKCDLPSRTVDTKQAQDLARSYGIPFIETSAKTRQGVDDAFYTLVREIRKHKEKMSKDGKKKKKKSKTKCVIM

As for `N#Cc1c(N)sc2c(F)ccc(-c3c(Cl)c4c5c(nc(OC[C@@]67CCCN6C[C@H](F)C7)nc5c3F)N3CCC(C#N)CC3CO4)c12` (single isomer, unassigned) [compound 105], the IC50 with A549 cells, on K-Ras G12S, on K-Ras G12V, with SW620 cells and on wildtype K-Ras was less than 5 µM each time.
`N#Cc1c(N)sc2c(F)ccc(-c3c(Cl)c4c5c(nc(OCC67CCCN6C[C@H](F)C7)nc5c3F)N3CCCCC3CCO4)c12` (single isomer, unassigned) [compound 117]: the IC50 in the experiment with A549 cells, on K-Ras G12S, on K-Ras G12V, with SW620 cells and at wildtype K-Ras was less than 5 µM in each case.
Regarding `N#Cc1c(N)sc2c(F)ccc(-c3c(Cl)c4c5c(nc(OC[C@@]67CCCN6C[C@H](F)C7)nc5c3F)N3CC(N)CCC3CCO4)c12` (stereo partly drawn) [compound 129, 2-amino-4-(9-amino-3-chloro-1-fluoro-13-(((2R,7aS)-2-fluorotetrahydro-1H-pyrrolizin-7a(5H)-yl)methoxy)-6,6a,7,8,9,10-hexahydro-5H-pyrido[1′,2′:5,6][1,5]oxazocino[4,3,2-de]quinazolin-2-yl)-7-fluorobenzo[b]thiophene-3-carbonitrile], the IC50 (as a rule, the concentration at which inhibition is half-maximal) at K-Ras G12S is less than 5 µM; at K-Ras G12V it was less than 5 µM; on K-Ras G12D, less than 5 µM; in the experiment with SW620 cells, more than 5 µM; in the experiment with GP2D cells, less than 5 µM; at wildtype K-Ras, less than 5 µM.
Take `N#Cc1c(N)sc2c(F)ccc(-c3c(Cl)c4c5c(nc(OC[C@@]67CCCN6C[C@H](F)C7)nc5c3F)N3CC5(CCN5C(=O)n5cncn5)CC3CO4)c12` (stereo partly drawn) [compound 131, 2-Amino-4-(10′-chloro-8′-fluoro-6′-(((2R,7aS)-2-fluorotetrahydro-1H-pyrrolizin-7a(5H)-yl)methoxy)-1-(1H-1,2,4-triazole-1-carbonyl)-12′,12a′-dihydro-1′H,3′H-spiro[azetidine-2,2′-pyrrolo[2′,1′:3,4][1,4]oxazepino[5,6,7-de]quinazolin]-9′-yl)-7-fluorobenzo[b]thiophene-3-carbonitrile]: the IC50 in the experiment on A549 cells, at K-Ras G12S, at K-Ras G12V, in the experiment on SW620 cells and at wildtype K-Ras was less than 5 µM each time.
For the molecule `CNC1CCN2c3nc(OC[C@@]45CCCN4C[C@H](F)C5)nc4c(F)c(-c5ccc(F)c6sc(N)c(C#N)c56)c(Cl)c(c34)OCCC2C1` (stereo partly drawn) [compound 158, 2-amino-4-(3-chloro-1-fluoro-13-(((2R,7aS)-2-fluorotetrahydro-1H-pyrrolizin-7a(5H)-yl)methoxy)-8-(methylamino)-6,6a,7,8,9,10-hexahydro-5H-pyrido[11,2′:5,6][1,5]oxazocino[4,3,2-de]quinazolin-2-yl)-7-fluorobenzo[b]thiophene-3-carbonitrile], the IC50 was less than 5 µM on K-Ras G12S; less than 5 µM on K-Ras G12V; less than 5 µM at K-Ras G12D; less than 5 µM with SW620 cells; more than 5 µM in the experiment on GP2D cells; less than 5 µM on wildtype K-Ras.
With `N#Cc1c(N)sc2c(F)ccc(-c3c(Cl)c4c5c(nc(OC[C@@]67CCCN6C[C@H](F)C7)nc5c3F)N3C[C@H](O)C[C@@H]3CCO4)c12` [compound 164, 2-amino-4-((2R,13aS)-10-chloro-8-fluoro-6-(((2R,7aS)-2-fluorotetrahydro-1H-pyrrolizin-7a(5H)-yl)methoxy)-2-hydroxy-1,2,3,12,13,13a-hexahydropyrrolo[1′,2′:5,6][1,5]oxazocino [4,3,2-de]quinazolin-9-yl)-7-fluorobenzo[b]thiophene-3-carbonitrile], the IC50 at K-Ras G12S, at K-Ras G12V, on K-Ras G12D, in the experiment on SW620 cells, in the experiment on GP2D cells and on wildtype K-Ras was less than 5 µM each time.
On to `CN1c2nc(OC[C@@]34CCCN3C[C@H](F)C4)nc3c(F)c(-c4ccc(F)c5sc(N)c(C#N)c45)c(Cl)c(c23)OCC2CCC21` (stereo partly drawn) [compound 187, 2-amino-4-(6-chloro-4-fluoro-2-(((2R,7aS)-2-fluorotetrahydro-1H-pyrrolizin-7a(5H)-yl)methoxy)-11-methyl-8,8a,9,10,10a,11-hexahydrocyclobuta[6,7][1,5]oxazocino [4,3,2-de]quinazolin-5-yl)-7-fluorobenzo[b]thiophene-3-carbonitrile], for which the half-inhibitory concentration (IC50) at K-Ras G12S, at K-Ras G12V, at K-Ras G12D, with SW620 cells, with GP2D cells and on wildtype K-Ras was less than 5 µM in each case.
Regarding `N#CCCN1c2nc(OC[C@@]34CCCN3C[C@H](F)C4)nc3c(F)c(-c4ccc(F)c5sc(N)c(C#N)c45)c(Cl)c(c23)OCC2COCC21` (stereo partly drawn) [compound 197, 2-amino-4-(6-chloro-12-(2-cyanoethyl)-4-fluoro-2-(((2R,7aS)-2-fluorotetrahydro-1H-pyrrolizin-7a(5H)-yl)methoxy)-8a,9,11a,12-tetrahydro-8H,11H-furo[3′,4′:6,7][1,5]oxazocino[4,3,2-de]quinazolin-5-yl)-7-fluorobenzo[b]thiophene-3-carbonitrile], the half-inhibitory concentration (IC50) on K-Ras G12S, on K-Ras G12V, on K-Ras G12D, in the experiment with SW620 cells, in the experiment with GP2D cells and on wildtype K-Ras was less than 5 µM throughout.
Consider `N#Cc1c(N)sc2c(F)ccc(-c3c(Cl)c4c5c(nc(OC[C@@]67CCCN6C[C@H](F)C7)nc5c3F)NC3COCC3CO4)c12` (stereo partly drawn) [compound 208, 2-amino-4-(6-chloro-4-fluoro-2-(((2R,7aS)-2-fluorotetrahydro-1H-pyrrolizin-7a(5H)-yl)methoxy)-8a,9,11a,12-tetrahydro-8H,11H-furo[3′,4′:6,7][1,5]oxazocino[4,3,2-de]quinazolin-5-yl)-7-fluorobenzo[b]thiophene-3-carbonitrile], for which the IC50 at K-Ras G12S, at K-Ras G12V, on K-Ras G12D, with SW620 cells, in the experiment with GP2D cells and at wildtype K-Ras was less than 5 µM in each case.
As to `CN(C)CCCN1c2nc(OC[C@@]34CCCN3C[C@H](F)C4)nc3c(F)c(-c4ccc(F)c5sc(N)c(C#N)c45)c(Cl)c(c23)OCC2COCC21` (stereo partly drawn) [compound 209, 2-amino-4-(6-chloro-12-(3-(dimethylamino)propyl)-4-fluoro-2-(((2R,7aS)-2-fluorotetrahydro-1H-pyrrolizin-7a(5H)-yl)methoxy)-8a,9,11a,12-tetrahydro-8H,11H-furo[3′,4′:6,7][1,5]oxazocino[4,3,2-de]quinazolin-5-yl)-7-fluorobenzo[b]thiophene-3-carbonitrile], the IC50 at K-Ras G12S, on K-Ras G12V, at K-Ras G12D, with SW620 cells, with GP2D cells and at wildtype K-Ras was less than 5 µM each time.
